From US12503713B1, “Stabilization of tryptamines by denaturing enzymes, optimizing ionization states, and controlling confounding variables” (Convergent Health Sciences LLC, priority 2025, dated 2025)

Columns and labels:
[1] = spontaneous dephosphorylation of phosphoryloxytryptamines in phosphate buffers, one hour at 85 degrees Celsius, HPLC at 220 nanometers (Example 1)
[2] = cited from earlier work
[3] = test system: phosphatase enzyme; test: colorimetric assay with a para-nitrophenyl phosphate substrate for residual phosphatase enzyme activity; type: biochemical, Psilocybe cubensis; details: supernatants of the extracts
Description: The denaturation of relevant phosphatase enzymes may be assessed, for example, by performing a colorimetric assay with a para-nitrophenyl phosphate substrate. Para-nitrophenyl phosphate comprises a phosphorylated aromatic, which is chemically similar to the phosphorylated indole of a phosphoryloxytryptamine. Colorimetric assays performed with a para-nitrophenyl phosphate substrate therefore provide suitable methods to assess […] that are relevant to this disclosure.
(§1) The molecular weights of the analytes are determined by electrospray ionization mass spectroscopy (ESI-MS) operating in positive ion mode. The supernatants are also used for a colorimetric assay with a para-nitrophenyl phosphate substrate to identify residual phosphatase enzyme activity and for a colorimetric assay with a syringaldazine substrate to identify any residual laccase enzyme activity.

[4] = test system: laccase enzyme; test: colorimetric assay with a syringaldazine substrate for residual laccase enzyme activity; type: biochemical, Psilocybe cubensis; details: supernatants of the extracts
Description: The denaturation of relevant laccase enzymes may be assessed, for example, by performing a colorimetric assay with a laccase enzyme substrate such as syringaldazine or 2,2′-azino-bis(3-ethylbenzothiazoline-6-sulfonate) (ABTS). Syringaldazine comprises an aromatic structure with pendant hydroxyl groups, which is chemically similar to the indole of a hydroxytryptamine, and ABTS comprises a benzothiazoline, which is chemically similar to the indole of tryptamines generally. Colorimetric assays performed with a syringaldazine or ABTS substrate therefore provide suitable methods to assess laccase activity that are relevant to this disclosure.
as §1

[5] = cited from earlier work; remark: listed apart in the source
[6] = pH of 2.0 relative to pH of 3.0
[7] = pH of 7.0 relative to pH of 6.0
[8] = pH of 3.0 relative to pH of 2.0
[9] = pH of 6.0 relative to pH of 7.0

In the case of `NCCc1c[nH]c2cccc(O)c12` [4-HT, 3-(2-aminoethyl)-1H-indol-4-ol], the “absorbance detected for the hydroxytryptamine” value [1, 6] is reported as “greater absorbance” and the “absorbance detected for the hydroxytryptamine” value [1, 7] is reported as “greater absorbance”.
For `C[N+](C)(C)CCc1c[nH]c2cccc(O)c12` [4-hydroxy-TMT, [2-(4-hydroxy-1H-indol-3-yl)ethyl]-trimethylazanium], the “absorbance detected for the hydroxytryptamine” value [1, 6] was “greater absorbance” and the “absorbance detected for the hydroxytryptamine” value [1, 7] was “greater absorbance”.
In the case of `O=C(O)Cc1c[nH]c2ccccc12` [Indole-3-acetic acid, indole-3-acetic acid], the solubility in water [2] is listed as “insoluble in water”.
With `C[N+](C)(C)CCc1c[nH]c2cccc(OP(=O)(O)O)c12` [aeruginascin, [2-(4-phosphonooxy-1H-indol-3-yl)ethyl]-trimethylazanium] the “absorbance detected for the phosphoryloxytryptamine” value [1, 8] was “Greater absorbance” and the “absorbance detected for the phosphoryloxytryptamine” value [1, 9] was “Greater absorbance”.
In the case of `N.N.O=S(=O)(O)O` [ammonium sulfate], the “phosphatase enzyme activity relative to the water control” value [3] is reported as “significantly less” and the “laccase enzyme activity relative to the water control” value [4] is reported as “significantly less”.
With `CNCCc1c[nH]c2cccc(OP(=O)(O)O)c12` [baeocystin, [2-(4-phosphonooxy-1H-indol-3-yl)ethyl]-methylazanium] the “absorbance detected for the phosphoryloxytryptamine” value [1, 8] was “Greater absorbance” and the “absorbance detected for the phosphoryloxytryptamine” value [1, 9] was “Greater absorbance”.
With `Cl.N=C(N)N` [guanidinium, guanidinium chloride] the “phosphatase enzyme activity relative to the water control” value [3] was “significantly less” and the “laccase enzyme activity relative to the water control” value [4] was “significantly less”.
For `NCCc1c[nH]c2cccc(OP(=O)(O)O)c12` [norbaeocystin, 2-(4-phosphonooxy-1H-indol-3-yl)ethylazanium], the “absorbance detected for the phosphoryloxytryptamine” value [1, 8] was “Greater absorbance” and the “absorbance detected for the phosphoryloxytryptamine” value [1, 9] was “Greater absorbance”.
With `CNCCc1c[nH]c2cccc(O)c12` [norpsilocin, 3-[2-(methylamino)ethyl]-1H-indol-4-ol] the “absorbance detected for the hydroxytryptamine” value [1, 6] was “greater absorbance” and the “absorbance detected for the hydroxytryptamine” value [1, 7] was “greater absorbance”.
With `CCCCCCCCO[C@@H]1O[C@H](CO)[C@@H](O)[C@H](O)[C@H]1O` [octyl glucoside, octyl β-D-glucopyranoside] the “phosphatase enzyme activity relative to the water control” value [3] was “significantly less” and the “laccase enzyme activity relative to the water control” value [4] was “significantly less”.
In the case of `CN(C)CCc1c[nH]c2cccc(O)c12` [psilocin, 3-[2-(dimethylamino)ethyl]-1H-indol-4-ol], the “absorbance detected for the hydroxytryptamine” value [1, 6] is reported as “greater absorbance” and the “absorbance detected for the hydroxytryptamine” value [1, 7] is reported as “greater absorbance”.
For `CN(C)CCc1c[nH]c2cccc(OP(=O)(O)O)c12` [psilocybin], the “pKa of the azanium of psilocybin” value ([5]; conjugate acid of the amino) is listed as “about 10.4” and the “pKa of the dihydrogen phosphate of psilocybin (lowest pKa)” value ([5]; first phosphate pKa) is listed as “about 1.3”.
With `CCCCCCCCCCCCOS(=O)(=O)[O-].[Na+]` [sodium dodecyl sulfate] the “phosphatase enzyme activity relative to the water control” value [3] was “significantly less” and the “laccase enzyme activity relative to the water control” value [4] was “significantly less”.
In the case of `OCCc1c[nH]c2ccccc12` [tryptophol], the solubility in water [2] is given as “insoluble in water”.
With `NC(N)=O` [urea] the “phosphatase enzyme activity relative to the water control” value [3] was “significantly less” and the “laccase enzyme activity relative to the water control” value [4] was “significantly less”.
For Chitin, the solubility in water [2] is listed as “insoluble in water”.
With “polyethylene glycol 4-(2,4,4-trimethylpent-2-yl)phenyl ether [Triton X-100]” the “phosphatase enzyme activity relative to the water control” value [3] was “significantly less” and the “laccase enzyme activity relative to the water control” value [4] was “significantly less”.
